How the values were obtained:
SurA = SurA (Escherichia coli, UniProt P0ABZ6); test: Luciferase-based SurA activity assay at the ELF (primary screen P1, dose response C2); type: biochemical, E. coli
From the text: The biological function of SurA is to bind and to keep outer membrane proteins that have reached the periplasm in an unfolded but folding-competent state. The inventors' assay is based on this interaction and uses firefly Luciferase (fLuc) as a non-native substrate. […] This is exploited in the assay (FIG. 3). The loss of tertiary structure of fLuc leads to the exposure of binding sites for SurA. It is known that SurA binds selectively to a special group of substrates. These substrates have in common the specific patterns of hydrophobic amino acids that are highly enriched in the beta strands of integral outer membrane proteins. These motifs are present in OMPs of all Gram-negative bacteria and in fLuc as well. Upon mild heat treatment of fLuc and its subsequent partial unfolding, fLuc is accepted as a substrate by SurA. Of note, these intermediates served as reporter substrates to determine the activity of a […] folding chaperone. […] This interaction remains stable upon temperature reduction. Next, the temperature of the assay is reduced to room temperature and luciferase activity is subsequently measured by addition of Luciferin and ATP. In conditions without SurA, fLuc will refold into its active conformation resulting in a luminescence signal.
Of note, the SurA activity assay was performed similar at the ELF but with optimizations in regard of the higher throughput including the change of the plate format to 1536-wells. The SurA activity assay performed at the ELF contained the following steps (adapted from the QHL report provided by the ELF). First, SurA was thawed at RT and heat activated in a water bath. Next, the vial was taken out of the water bath and cooled down to RT for 30 min @ bench. Afterwards, the SurA concentration was adjusted in assay buffer to 2 μM. Noteworthy, the SurA solution was kept on ice. […] Finally, 2 μL substrate mix (180 μM Luciferin with 12 mM ATP) were added simultaneously to all wells using the Fluorometric Imaging Plate Reader (FLIPR) and the luminescence signal was measured immediately afterwards on the FLIPR (Gain 70,000). […]

E. coli = test: Vancomycin MIC in presence of compound (strain not stated); type: cell-based; conditions: in presence of 100 μM compound
Description: To test for the sensitizer properties of the compounds, the inventors then performed a sensitizer MIC assay. To this end, E. coli BW25113, E. coli JW2496-3, and E. coli ATCC 25922 inocula were prepared as described above. Each well of a 96-well plate was prefilled with a fixed compound concentration of 100 μM and a dilution series of Vancomycin ranging from […]. A sensitizing effect was defined as reduction of the MIC value of Vancomycin of the respective test strain.

Sequence of SurA (P0ABZ6 21-428): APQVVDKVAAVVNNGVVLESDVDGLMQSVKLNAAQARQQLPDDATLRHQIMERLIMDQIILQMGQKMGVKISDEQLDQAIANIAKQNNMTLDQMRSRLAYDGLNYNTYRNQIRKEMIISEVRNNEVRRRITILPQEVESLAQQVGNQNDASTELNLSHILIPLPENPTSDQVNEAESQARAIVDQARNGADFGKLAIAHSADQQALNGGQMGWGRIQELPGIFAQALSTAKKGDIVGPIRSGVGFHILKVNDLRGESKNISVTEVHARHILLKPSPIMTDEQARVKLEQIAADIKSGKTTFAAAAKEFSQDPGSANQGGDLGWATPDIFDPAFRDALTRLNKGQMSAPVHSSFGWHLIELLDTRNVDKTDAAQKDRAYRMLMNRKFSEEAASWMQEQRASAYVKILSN

Compound: CN(C)c1ccc(-c2nc3cc(NC(=O)Cn4cc5ccccc5n4)ccc3[nH]2)cc1 [QHL-24]
- DRC (C2) pIC50 (SurA; 7 concentration steps 20 μM to 27.4 nM, n=2): 5.45
- Primary assay (P1) % Effect (SurA; ELF library screen, 1536-well): 151%
- Primary assay (P1) Z-score (SurA; ELF library screen, 1536-well): 191.97
- MIC (Vanco, mg/ml) (E. coli): 0.256 mg/mL

From patent US20240336573A1, “COMPOUND FOR THE TREATMENT AND PROPHYLAXIS OF INFECTIOUS DISEASES” (Eberhard Karls Universität Tübingen Medizinische Fakultät, priority 2021, published 2024)
